Results on one compound are retold here after publication PMC12302426, “Dihydrokoumine, a dual-target analgesic with reduced side effects isolated from a traditional Chinese medicine” (Journal of Advanced Research, 2024).

One data set concerns the target T1, M3R (Homo sapiens, UniProt P20309).
T1 construct: expressed in transfected cells; host or cells: HEK293 cell membranes
Kind of data set: FLIPR Ca2+ antagonist assay in HEK293-M3 cells (carbachol-induced). The data set is classed as cell-based. As to the method:
FLIPR assay was carried out as reported earlier. Cell lines were seeded in 96-well plates with black walls (Greiner, USA) at 8.0 × 10^4 cells per well. After approximately 22 h of incubation, the cells were exposed to Calcium-6 dye (Molecular Devices, USA) in HBSS buffer supplemented with 20 mM HEPES (pH 7.4) at 37°C for one hour. Samples, redissolved in DMSO and housed in 96-well drug plates, underwent dilution with FLIPR buffer and subsequent automated introduction to the cells. […] In FLIPR antagonist experiments, cells were pre-incubated with the compound for 10 min prior to introducing a specified concentration of agonist. Results were presented as fluorescence (arbitrary units) plotted against time.

Data set [1] is described as follows: Pharmacokinetics, blood-brain barrier permeability. The data set is classed as in vivo, C57BL/6 male mice. On the procedure:
Blood‐brain barrier permeability evaluation was as follows. C57BL/6 male mice (about 25 g) were used in evaluation of blood‐brain barrier permeability (n = 3). Mice were given a single dose of DK (20 mg/kg, 5 mL/kg, i.p.) through intraperitoneal injection. Blood (300 μL) was collected at 0.167, 0.5, 1, 2, 3 and 4 h into EDTA tubes. Plasma was obtained by mixing with acetonitrile and centrifugation (3000 r/min, 10 min). Meanwhile, brains were excised after saline perfusion at these time points. Brain samples were grinded (70 Hz, 90 s) and sonicated (30 s) to break up the tissue, followed by centrifugation (15,000 r/min, 10 min, […]) to obtain brain sample.
Brain and plasma drug levels were measured by LC-30AD (Shimadzu Corporation Kyoto, Japan) and SCIEX QTRAP-6500 (AB Sciex, Foster City, CA, USA) and calculated by comparing with internal standard (koumine, 200 ng/mL). The used column was Waters ACQUITY UPLC BEH C18 (2.1*150 mm, 1.7 μm); the mobile phase was composed of (A) 0.1 % FA in water and (B) 0.1 % FA in ACN; the elution gradient was 20 % B (0–3 min), 20–40 % B (3–5 min), 40–95 % B (5–6 min); the flow rate was 0.3 mL/min; and detection was in the positive mode.

The next data set addresses T2, M2R (Homo sapiens, UniProt P08172).
T2 construct: expressed in transfected cells
Put plainly: FLIPR assay in HEK293-M2 cells (carbachol-induced Ca2+). The data set is classed as cell-based. Particulars: DK pretreatment one hour. As to the method: FLIPR assay was carried out as reported earlier. Cell lines were seeded in 96-well plates with black walls (Greiner, USA) at 8.0 × 10^4 cells per well. After approximately 22 h of incubation, the cells were exposed to Calcium-6 dye (Molecular Devices, USA) in HBSS buffer supplemented with 20 mM HEPES (pH 7.4) at 37°C for one hour. Samples, redissolved in DMSO and housed in 96-well drug plates, underwent dilution with FLIPR buffer and subsequent automated introduction to the cells. […] […] Results were presented as fluorescence (arbitrary units) plotted against time.

T1 sequence (P20309 whole entry): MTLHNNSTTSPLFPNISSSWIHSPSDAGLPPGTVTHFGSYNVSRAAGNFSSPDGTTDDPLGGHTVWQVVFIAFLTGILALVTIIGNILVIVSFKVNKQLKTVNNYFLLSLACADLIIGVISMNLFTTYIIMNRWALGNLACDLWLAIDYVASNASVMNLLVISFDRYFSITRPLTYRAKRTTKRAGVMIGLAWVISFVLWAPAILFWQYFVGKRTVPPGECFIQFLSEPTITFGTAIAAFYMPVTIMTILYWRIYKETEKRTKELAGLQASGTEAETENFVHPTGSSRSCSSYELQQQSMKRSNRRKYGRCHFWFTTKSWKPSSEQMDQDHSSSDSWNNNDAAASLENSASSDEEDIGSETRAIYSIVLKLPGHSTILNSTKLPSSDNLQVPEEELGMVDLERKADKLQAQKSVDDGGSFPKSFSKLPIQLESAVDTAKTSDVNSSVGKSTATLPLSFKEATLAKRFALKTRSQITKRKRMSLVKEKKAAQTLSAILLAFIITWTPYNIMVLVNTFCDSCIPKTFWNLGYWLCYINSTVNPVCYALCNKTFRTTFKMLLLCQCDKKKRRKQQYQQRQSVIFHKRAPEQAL
T2 sequence (P08172 whole entry): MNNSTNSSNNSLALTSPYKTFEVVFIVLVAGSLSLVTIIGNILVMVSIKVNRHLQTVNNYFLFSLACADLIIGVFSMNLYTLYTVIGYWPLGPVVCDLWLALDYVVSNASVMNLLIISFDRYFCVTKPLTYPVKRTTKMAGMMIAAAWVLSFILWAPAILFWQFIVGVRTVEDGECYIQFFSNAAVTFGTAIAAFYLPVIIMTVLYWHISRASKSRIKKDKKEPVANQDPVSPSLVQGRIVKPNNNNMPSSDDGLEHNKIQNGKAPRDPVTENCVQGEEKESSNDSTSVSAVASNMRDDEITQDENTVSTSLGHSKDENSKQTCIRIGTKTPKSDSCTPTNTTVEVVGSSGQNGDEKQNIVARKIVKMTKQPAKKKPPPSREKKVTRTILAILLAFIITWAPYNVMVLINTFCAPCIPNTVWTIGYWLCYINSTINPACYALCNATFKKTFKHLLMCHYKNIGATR

As to `C=CC12CN(C)C3CC14c1ccccc1NC4C1CC2C3CO1` (stereo not drawn) [DK], on M3R (FLIPR, 5 nM carbachol (Fig. 2D), read-out: IC50 for inhibition of carbachol-induced Ca2+ response), the IC50 (usually the concentration that inhibits the measured activity by half) amounted to 11.6 ± 4.31 µM. The “concentration-dependent inhibition of carbachol-induced Ca2+ response at M3R compared with purified DK” value at M3R (semisynthesized material) was “its activity was close to that of purified DK”. For the same compound, the Kp in data set [1] (male, C57BL/6, mouse, brain/plasma, ip, 20 mg/kg, read-out: Kp (AUCbrain/AUCplasma)) amounted to 1.27. Moreover, the AUC – broadly, the area under the concentration-time curve, a measure of exposure – in data set [1] (male, C57BL/6, mouse, ip, mice, plasma, i.p., 20 mg/kg (method), read-out: (AUC)0-4 h in plasma) is 733 ng·h/mL. Further, the “(AUC)0-4 h in brain” value in data set [1] (mice, brain, i.p., 20 mg/kg (method)) turned out to be 933.4 ng·h/g. The “inhibition of carbachol-induced Ca2+ response” value at M2R is on record as “could not concentration-dependently inhibit”.
